# Test system: human CD3+ T cells
# Conditions: T cells pre-incubated with 0.01 μM to 10 mM AMD3100; harvested after 3 h; anti-fugetactic at lower, fugetactic at higher concentrations
# Procedure: For quantitative transmigration assays, purified human CD3^+ T cells (approximately 2×10^4 cells) are added to the upper chamber of a Transwell® insert in each well, to a total volume of 150 μl of Iscove's modified medium. […] To determine the anti-fugetactic concentration of AMD3100, the T cells are incubated with 0.01 μM to 10 mM AMD3100 prior to addition to the chamber. Cells are harvested from the lower chamber after 3 h, and cell counts are performed using a hemocytometer.
smiles,measurement,value
"c1cc(CN2CCCNCCNCCCNCC2)ccc1CN1CCCNCCNCCCNCC1 [AMD3100, 1,1′[1,4-phenylenebis(methylene)]bis [1,4,8,11-tetraazacyclotetradecane]]",Effect on T cell migration away from tumor cells (anti-fugetactic versus fugetactic),bimodal effect

# From US20180273897A1, “MODIFIED T-CELLS HAVING ANTI-FUGETACTIC PROPERTIES AND USES THEREOF” (THE GENERAL HOSPITAL CORPORATION, priority 2015, published 2018)
